Reference: ChEMBL document CHEMBL4152355, “Novel multi-target compounds in the quest for new chemotherapies against Alzheimer's disease: An experimental and theoretical study” (Bioorg Med Chem, 2018)
Activity calls are given as the source filed them. The rule behind the calls is not given here.

Experiments:
[1] = target: T1, Beta-secretase 1 (Homo sapiens, UniProt P56817); assay: Inhibition of BACE 1 (unknown origin) at 50 uM using Rh-EVNLDAEFK-Quencher as substrate after 1 hr by FRET assay relative to control
T1 sequence (P56817 whole entry): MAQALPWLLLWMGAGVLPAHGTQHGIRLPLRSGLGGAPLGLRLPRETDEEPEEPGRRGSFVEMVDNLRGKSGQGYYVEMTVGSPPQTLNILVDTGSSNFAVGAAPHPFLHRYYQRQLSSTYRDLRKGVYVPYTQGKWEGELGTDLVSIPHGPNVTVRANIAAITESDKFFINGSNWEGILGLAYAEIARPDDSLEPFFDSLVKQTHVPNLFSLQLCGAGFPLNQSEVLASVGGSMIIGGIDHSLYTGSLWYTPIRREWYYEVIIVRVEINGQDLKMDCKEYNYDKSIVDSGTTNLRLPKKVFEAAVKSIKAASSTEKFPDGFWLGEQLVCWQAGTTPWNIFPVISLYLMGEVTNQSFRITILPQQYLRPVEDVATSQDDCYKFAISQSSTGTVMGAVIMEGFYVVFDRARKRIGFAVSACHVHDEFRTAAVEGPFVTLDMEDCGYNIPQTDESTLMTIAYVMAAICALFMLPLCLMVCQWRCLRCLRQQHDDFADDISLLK

[2] = target: T1, Beta-secretase 1; assay: Inhibition of BACE 1 (unknown origin) using 250 nM of Rh-EVNLDAEFK-Quencher as substrate after 1 hr by FRET assay
[3] = target: T1, Beta-secretase 1; assay: Inhibition of BACE 1 (unknown origin) using 500 nM of Rh-EVNLDAEFK-Quencher as substrate after 1 hr by FRET assay
[4] = Metal chelating activity assessed as compound-Cu2+ adduct formation at 20 uM by spectrophotometric titration analysis
[5] = Metal chelating activity assessed as inhibition of Cu2+ induced amyloid beta (1 to 40) aggregation by measuring decrease in ROS production at 2 equiv after 75 mins by fluorescence assay
[6] = Antioxidant activity assessed as AAPH radical scavenging activity up to 64 uM by ORAC assay; assay type: functional
[7] = Inhibition of Cu2+ induced amyloid beta (1 to 40) fibril aggregation assessed as fluorescence emission at 100 uM measured on day 3 by thioflavin-T based assay (reference value: 33.64 +/- 5.80)
[8] = Inhibition of Cu2+ induced amyloid beta (1 to 40) fibril aggregation assessed as aggregation level at 100 uM measured on day 3 by UV-visible turbidity method (reference value: 100 +/- 17.24%); design: scale not given: the % may be the effect or the level left
[9] = Inhibition of Cu2+ induced amyloid beta (1 to 40) fibril aggregation assessed as fluorescence emission at 100 uM measured on day 7 by thioflavin-T based assay (reference value: 181.04 +/- 1.74)
[10] = Inhibition of Cu2+ induced amyloid beta (1 to 40) fibril aggregation assessed as aggregation level at 100 uM measured on day 7 by UV-visible turbidity method (reference value: 100 +/- 0.96%); design: scale not given: the % may be the effect or the level left
[11] = Inhibition of Cu2+ induced amyloid beta (1 to 40) fibril aggregation assessed as fluorescence emission at 100 uM measured on day 10 by thioflavin-T based assay (reference value: 412.11 +/- 35.93)
[12] = Inhibition of Cu2+ induced amyloid beta (1 to 40) fibril aggregation assessed as aggregation level at 100 uM measured on day 10 by UV-visible turbidity method (reference value: 100 +/- 8.72%); design: scale not given: the % may be the effect or the level left
[13] = target: Amyloid-beta precursor protein (Homo sapiens) (UniProt P05067); assay: Inhibition of self-induced amyloid beta (1 to 40) (unknown origin) fibril aggregation assessed as fluorescence emission at 100 uM measured on day 3 by thioflavin-T based assay
Sequence of Amyloid-beta precursor protein (Homo sapiens) (P05067 whole entry): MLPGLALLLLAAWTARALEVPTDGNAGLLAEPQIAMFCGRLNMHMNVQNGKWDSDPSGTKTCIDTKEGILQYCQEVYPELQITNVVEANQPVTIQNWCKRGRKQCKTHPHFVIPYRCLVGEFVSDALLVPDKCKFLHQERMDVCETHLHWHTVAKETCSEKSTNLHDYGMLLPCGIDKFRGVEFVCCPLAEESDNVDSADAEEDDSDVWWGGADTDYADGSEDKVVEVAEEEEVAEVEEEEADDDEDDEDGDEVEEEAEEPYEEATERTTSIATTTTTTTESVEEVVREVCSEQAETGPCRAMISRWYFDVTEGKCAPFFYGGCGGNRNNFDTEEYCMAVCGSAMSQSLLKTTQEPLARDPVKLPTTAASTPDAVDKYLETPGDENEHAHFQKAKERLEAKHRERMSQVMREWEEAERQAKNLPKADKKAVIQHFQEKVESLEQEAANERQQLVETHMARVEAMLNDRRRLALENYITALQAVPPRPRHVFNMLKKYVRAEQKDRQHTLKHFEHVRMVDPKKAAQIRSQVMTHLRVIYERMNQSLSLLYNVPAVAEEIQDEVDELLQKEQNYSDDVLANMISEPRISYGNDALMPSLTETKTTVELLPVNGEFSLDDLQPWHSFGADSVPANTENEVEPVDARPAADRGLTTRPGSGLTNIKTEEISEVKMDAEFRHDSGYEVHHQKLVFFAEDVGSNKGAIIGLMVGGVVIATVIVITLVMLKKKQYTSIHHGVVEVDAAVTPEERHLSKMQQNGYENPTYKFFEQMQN

[14] = target: Amyloid-beta precursor protein (Homo sapiens) (UniProt P05067); assay: Inhibition of self-induced amyloid beta (1 to 40) (unknown origin) fibril aggregation assessed as aggregation level at 100 uM measured on day 3 by UV-visible turbidity method; design: scale not given: the % may be the effect or the level left
[15] = target: Amyloid-beta precursor protein (Homo sapiens) (UniProt P05067); assay: Inhibition of self-induced amyloid beta (1 to 40) (unknown origin) fibril aggregation assessed as fluorescence emission at 100 uM measured on day 7 by thioflavin-T based assay
[16] = target: Amyloid-beta precursor protein (Homo sapiens) (UniProt P05067); assay: Inhibition of self-induced amyloid beta (1 to 40) (unknown origin) fibril aggregation assessed as aggregation level at 100 uM measured on day 7 by UV-visible turbidity method; design: scale not given: the % may be the effect or the level left
[17] = target: Amyloid-beta precursor protein (Homo sapiens) (UniProt P05067); assay: Inhibition of self-induced amyloid beta (1 to 40) (unknown origin) fibril aggregation assessed as fluorescence emission at 100 uM measured on day 10 by thioflavin-T based assay; design: reference not given here
[18] = target: Amyloid-beta precursor protein (Homo sapiens) (UniProt P05067); assay: Inhibition of self-induced amyloid beta (1 to 40) (unknown origin) fibril aggregation assessed as aggregation level at 100 uM measured on day 10 by UV-visible turbidity method; design: scale not given: the % may be the effect or the level left
[19] = Disaggregation of Cu2+ induced amyloid beta (1 to 40) preformed fibrils assessed as fluorescence emission at 100 uM after 4 days by thioflavin-T based assay (reference value: 178.07 +/- 17.24)
[20] = Disaggregation of Cu2+ induced amyloid beta (1 to 40) preformed fibrils assessed as aggregation level at 100 uM after 4 days by UV-visible turbidity method (reference value: 143.11 +/- 0.76%)
[21] = Disaggregation of Cu2+ induced amyloid beta (1 to 40) preformed fibrils assessed as fluorescence emission at 100 uM after 12 days by thioflavin-T based assay (reference value: 150.21 +/- 2.32)
[22] = Disaggregation of Cu2+ induced amyloid beta (1 to 40) preformed fibrils assessed as aggregation level at 100 uM after 12 days by UV-visible turbidity method (reference value: 120.73 +/- 1.86%)
[23] = target: Amyloid-beta precursor protein (Homo sapiens) (UniProt P05067); assay: Disaggregation of self-induced amyloid beta (1 to 40) (unknown origin) preformed fibrils assessed as fluorescence emission at 100 uM after 4 days by thioflavin-T based assay; design: reference not given here
[24] = target: Amyloid-beta precursor protein (Homo sapiens) (UniProt P05067); assay: Disaggregation of self-induced amyloid beta (1 to 40) (unknown origin) preformed fibrils assessed as aggregation level at 100 uM after 4 days by UV-visible turbidity method
[25] = target: Amyloid-beta precursor protein (Homo sapiens) (UniProt P05067); assay: Disaggregation of self-induced amyloid beta (1 to 40) (unknown origin) preformed fibrils assessed as fluorescence emission at 100 uM after 12 days by thioflavin-T based assay; design: reference not given here
[26] = target: Amyloid-beta precursor protein (Homo sapiens) (UniProt P05067); assay: Disaggregation of self-induced amyloid beta (1 to 40) (unknown origin) preformed fibrils assessed as aggregation level at 100 uM after 12 days by UV-visible turbidity method
[27] = Cytotoxicity against human HEK293 cells assessed as decrease in cell viability after 48 hrs by MTT assay; assay type: cell-based; settings: read-out: LD50
[28] = test system: HEK293; assay: Cytotoxicity against human HEK293 cells assessed as decrease in cell viability after 48 hrs by MTT assay relative to resveratrol; assay type: cell-based; settings: hek293, 48 h
[29] = target: T1, Beta-secretase 1; assay: Inhibition of BACE 1 (unknown origin) at 10 to 50 uM using Rh-EVNLDAEFK-Quencher as substrate after 1 hr by FRET assay relative to control
[30] = Metal chelating activity assessed as compound-Cu2+ adduct formation by spectrophotometric analysis
[31] = Antioxidant activity assessed as AAPH radical scavenging activity at 1 to 16 uM by ORAC assay; assay type: functional
[32] = target: Amyloid-beta precursor protein (Homo sapiens) (UniProt P05067); assay: Induction of amyloid beta (1 to 40) (unknown origin) amorphous aggregation at 100 uM after 10 days
[33] = Toxicity in Tetrahymena thermophila assessed as decrease in viability after 48 hrs by MTT assay; assay type: organism-based; settings: Tetrahymena thermophila cells, read-out: LD50
[34] = test system: Tetrahymena thermophila; assay: Toxicity in Tetrahymena thermophila assessed as decrease in viability after 48 hrs by MTT assay relative to resveratrol; assay type: organism-based; settings: in vivo

| SMILES | inhibition [1] | IC50 [2] | IC50 [3] | logKa [4] | inhibition [5] | Flu intensity [7] | Activity [8] | Flu intensity [9] | Activity [10] | Flu intensity [11] | Activity [12] | Flu intensity [13] | Activity [14] | Flu intensity [15] | Activity [16] | Flu intensity [17] | Activity [18] | Flu intensity [19] | Activity [20] | Flu intensity [21] | also measured |
| --- | --- | --- | --- | --- | --- | --- | --- | --- | --- | --- | --- | --- | --- | --- | --- | --- | --- | --- | --- | --- | --- |
| O=C(NCCNc1ccnc2cc(Cl)ccc12)c1cnccn1 | 91% | 1.7 µM | 9.9 µM | inactive | 36.2% | 41.7 | 124% | 245 | 135% | 195 | 47.2% | 313 | 125% | 707 | 181% | 767 | 188% | 109 | 87.7% | 71.7 | Activity [6]: inactive; Activity [22]: 57.6%; Flu intensity [23]: 289; Activity [24]: 113%; Flu intensity [25]: 224; Activity [26]: 87.8%; CC50 at 48 h [27]: 113 µM; fold change (FC) [28]: 1.6 |
| Cl.Nc1ncnc2c1ncn2CCNCC/N=C/c1ccc(O)cc1O | 59.2% | 41.4 µM | 42 µM | 14.8 | 97.5% | 100 | 299% | 172 | 94.8% | 135 | 32.7% | 247 | 98.2% | 356 | 90.9% | 367 | 89.8% | 60.9 | 48.9% | 38.4 | inhibition [29]: < 50%; Activity [30]: Active; ORAC (Trolox equivalents) [31]: 2.39; Activity [22]: 30.9%; Flu intensity [23]: 246; Activity [24]: 96.3%; Flu intensity [25]: 226; Activity [26]: 88.4%; Activity [32]: 6 to 33%; LC50 at 48 h [33]: 811 µM; fold change (FC) [34]: 3.4; CC50 at 48 h [27]: 336 µM; fold change (FC) [28]: 4.7 |
